Patent US20030135023A1, “Peptide structures useful for competitive modulation of dipeptidyl peptidase IV catalysis” (priority 2001, published 2003)
Several values for one entry are separate records, joined by “and”; a condition that tells them apart may be missing. Equal values may be shown once. Read-outs that look alike come from different tables or passages of the source. Square brackets hold non-standard residues; d marks the D form. Peptide text beside a SMILES is read from it. Tle = CC(C)(C)[C@H](N)C(=O)O

Biological target: T1, plasma DP IV (Rattus norvegicus, UniProt P14740)
T1 construct: The assay mixture consisted of 80 μl reagent and 20 μl plasma; from tissue; host or cells: plasma of Wistar rats
T1 sequence (P14740 37-767 limits assumed): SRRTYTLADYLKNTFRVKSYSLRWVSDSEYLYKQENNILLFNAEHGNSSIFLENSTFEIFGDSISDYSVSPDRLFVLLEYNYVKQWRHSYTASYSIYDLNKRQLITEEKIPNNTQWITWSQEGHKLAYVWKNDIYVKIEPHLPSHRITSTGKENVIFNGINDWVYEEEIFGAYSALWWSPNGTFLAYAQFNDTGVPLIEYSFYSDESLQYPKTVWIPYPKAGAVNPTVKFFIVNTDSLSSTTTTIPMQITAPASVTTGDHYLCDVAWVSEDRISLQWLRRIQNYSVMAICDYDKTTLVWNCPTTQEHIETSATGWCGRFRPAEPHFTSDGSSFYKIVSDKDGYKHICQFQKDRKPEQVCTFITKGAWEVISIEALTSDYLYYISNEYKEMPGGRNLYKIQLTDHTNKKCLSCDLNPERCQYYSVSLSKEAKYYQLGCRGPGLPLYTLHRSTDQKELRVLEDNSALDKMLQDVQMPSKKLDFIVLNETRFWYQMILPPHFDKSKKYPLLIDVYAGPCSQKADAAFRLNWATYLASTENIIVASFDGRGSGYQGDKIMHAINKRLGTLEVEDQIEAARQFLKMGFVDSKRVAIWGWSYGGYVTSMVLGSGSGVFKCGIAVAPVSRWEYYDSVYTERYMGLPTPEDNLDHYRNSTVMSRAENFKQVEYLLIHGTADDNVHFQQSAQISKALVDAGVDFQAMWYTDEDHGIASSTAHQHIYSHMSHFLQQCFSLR
Experiment: Plasma DP IV activity after intravasal and oral administration in Wistar rats
Format: in vivo
Details: for inhibition at 100 mg/kg: rat, Wistar rats
Protocol: Rats with intact catheter function were given the test substances intravasal (intraarterial) or oral, respectively, in random order (N=3 Wistar rats in each group). As positive control, […]. isoleucine thiazolidine*fumarate were administered intravasal.
After overnight fasting, 100 μl samples of heparinized arterial blood were collected at −30, −5, and 0 min into ice-cooled Eppendorf tubes (see below). The test substances were dissolved freshly in 1.0 ml saline (0.154 mol/l) and were given at 0 min either oral via a feeding tube ([…], 75 mm; Fine Science Tools, Heidelberg, Germany) or intravasal. For the intravasal route, the catheter was immediately flushed with 30 μl saline and an additional 1 ml of saline was given orally via the feeding tube.
Arterial blood samples were taken thereafter at 5, 10 (only in a limited number of experiments), 20, 40, 60 and 120 min from the carotid catheter of the conscious unrestrained rats and were always given into ice cooled Eppendorf tubes (Eppendorf-Netheler-Hinz, Hamburg, Germany) filled with 10 μl 1 M citrate buffer pH 3.0 for prevention of further hydrolysis of tripeptides by plasma DP IV activity. Eppendorf tubes were centrifuged immediately (12000 rpm for 2 min, Hettich Zentrifuge EBA 12, Tuttlingen; Germany): The plasma fractions were store on ice until analysis or were deeply frozen at −20 ° C. until analysis.
Plasma DP IV activity: The assay mixture consisted of 80 μl reagent and 20 μl plasma. Kinetic measurements of the formation of the yellow product 4-nitroaniline were performed at 390 nm for 1 min at 30° C. after 2 min pre-incubation at the same temperature. The activity was expressed as arbitrary units [AU] and DP IV activity [mU/ml].
The absolute values of plasma DP IV activity, the relative change of plasma DP IV activity and the time and extent of maximal inhibition were calculated. Data presentation included the presentation of area under the curve (AUC), which was used for evaluation of extent of inhibition of plasma DP IV activity during the two hours of observation. AUC was calculated using the trapezoidal rule.
To compare relative changes of parameters under the conditions of different initial values of DP IV activity an uniform standardised mean (values) was set up at the beginning of the test (see Figures and Tables).
Statistical evaluations were performed with Microsoft Excel® 97. All variables are presented as mean and standard deviation (SD). Treatment groups were compared by Student's t-test, within-group changes by paired t-test. Two-tailed values of p<0.05 were considered significant.

[1] = iv (intravasal) 100 mg/kg b.w., Mean
[2] = iv (intravasal) 100 mg/kg b.w., individual animals, 100 mg/kg
[3] = oral 100 mg/kg b.w., individual animals, 100 mg/kg

SMILES: CC[C@H](C)[C@H](NC(=O)[C@@H]1CCCN1C(=O)[C@@H](N)C(C)(C)C)C(=O)O [t-butyl-Gly-Pro-Ile] (H-[Tle]-Pro-Ile-OH; N-terminus and C-terminus assumed)
- DP IV-AUC0-120 min (intra-vasal 100 mg/kg b.w.): −617±234 mU·min·ml^−1
- plasma DP IV at 5 min (intravasal 100 mg/kg b.w., p<0.05): below 10 mU/ml
- Plasma DP IV activity (iv (intravasal) 100 mg/kg b.w., 2.5 min, Mean): 19.01 mU/ml
- Plasma DP IV activity (iv (intravasal) 100 mg/kg b.w., 2.5 min, Standardized Mean): 15.18 mU/ml
- Plasma DP IV activity (iv (intravasal) 100 mg/kg b.w., 2.5 min, individual animals, 100 mg/kg): 15.35 mU/ml and 27.63 mU/ml and 14.04 mU/ml
- Plasma DP IV activity (iv (intravasal) 100 mg/kg b.w., 5 min, Mean): 18.86 mU/ml
- Plasma DP IV activity (iv (intravasal) 100 mg/kg b.w., 5 min, Standardized Mean): 15.03 mU/ml
- Plasma DP IV activity (iv (intravasal) 100 mg/kg b.w., 5 min, individual animals, 100 mg/kg): 15.35 mU/ml and 25.00 mU/ml and 16.23 mU/ml
- Plasma DP IV activity (iv (intravasal) 100 mg/kg b.w., 7.5 min, Mean): 21.05 mU/ml
- Plasma DP IV activity (iv (intravasal) 100 mg/kg b.w., 7.5 min, Standardized Mean): 17.22 mU/ml
- Plasma DP IV activity (iv (intravasal) 100 mg/kg b.w., 7.5 min, individual animals, 100 mg/kg): 17.11 mU/ml and 27.63 mU/ml and 18.42 mU/ml
- Plasma DP IV activity (iv (intravasal) 100 mg/kg b.w., 10 min, Mean): 17.25 mU/ml
- Plasma DP IV activity (iv (intravasal) 100 mg/kg b.w., 10 min, Standardized Mean): 13.42 mU/ml
- Plasma DP IV activity (iv (intravasal) 100 mg/kg b.w., 10 min, individual animals, 100 mg/kg): 17.11 mU/ml and 20.18 mU/ml and 14.47 mU/ml
- Plasma DP IV activity (iv (intravasal) 100 mg/kg b.w., 15 min, Mean): 15.50 mU/ml
- Plasma DP IV activity (iv (intravasal) 100 mg/kg b.w., 15 min, Standardized Mean): 11.67 mU/ml
- Plasma DP IV activity (iv (intravasal) 100 mg/kg b.w., 15 min, individual animals, 100 mg/kg): 14.47 mU/ml and 18.42 mU/ml and 13.60 mU/ml
- Plasma DP IV activity (iv (intravasal) 100 mg/kg b.w., 20 min, Mean): 18.71 mU/ml
- Plasma DP IV activity (iv (intravasal) 100 mg/kg b.w., 20 min, Standardized Mean): 14.88 mU/ml
- Plasma DP IV activity (iv (intravasal) 100 mg/kg b.w., 20 min, individual animals, 100 mg/kg): 15.35 mU/ml (2×) and 25.44 mU/ml
- Plasma DP IV activity (iv (intravasal) 100 mg/kg b.w., 40 min, Mean): 17.98 mU/ml
- Plasma DP IV activity (iv (intravasal) 100 mg/kg b.w., 40 min, Standardized Mean): 14.15 mU/ml
- Plasma DP IV activity (iv (intravasal) 100 mg/kg b.w., 40 min, individual animals, 100 mg/kg): 14.91 mU/ml and 23.68 mU/ml and 15.35 mU/ml
- Plasma DP IV activity (iv (intravasal) 100 mg/kg b.w., 60 min, Mean): 17.25 mU/ml
- Plasma DP IV activity (iv (intravasal) 100 mg/kg b.w., 60 min, Standardized Mean): 13.42 mU/ml
- Plasma DP IV activity (iv (intravasal) 100 mg/kg b.w., 60 min, individual animals, 100 mg/kg): 15.79 mU/ml and 22.37 mU/ml and 13.60 mU/ml
- Plasma DP IV activity (iv (intravasal) 100 mg/kg b.w., 120 min, Mean): 19.44 mU/ml
- Plasma DP IV activity (iv (intravasal) 100 mg/kg b.w., 120 min, Standardized Mean): 15.61 mU/ml
- Plasma DP IV activity (iv (intravasal) 100 mg/kg b.w., 120 min, individual animals, 100 mg/kg): 17.11 mU/ml and 25.88 mU/ml and 15.35 mU/ml
- DP IV-AUC [1]: −673.4 AU · min
- Drop of plasma DP IV activity [1]: 5.19 mU/ml
- DP IV-AUC [2]: −452.9 AU · min and −1179.3 AU · min and −388.2 AU · min
- Drop of plasma DP IV activity [2]: 5.70 mU/ml and 6.58 mU/ml and 3.29 mU/ml
- time period over which plasma DP IV decreased slowly (oral 100 mg/kg b.w.): 40 min
- Plasma DP IV activity (oral 100 mg/kg b.w., 2.5 min, Mean): 17.25 mU/ml
- Plasma DP IV activity (oral 100 mg/kg b.w., 2.5 min, Standardized Mean): 17.08 mU/ml
- Plasma DP IV activity (oral 100 mg/kg b.w., 2.5 min, individual animals, 100 mg/kg): 20.61 mU/ml and 9.21 mU/ml and 21.93 mU/ml
- Plasma DP IV activity (oral 100 mg/kg b.w., 5 min, Mean): 19.15 mU/ml
- Plasma DP IV activity (oral 100 mg/kg b.w., 5 min, Standardized Mean): 18.98 mU/ml
- Plasma DP IV activity (oral 100 mg/kg b.w., 5 min, individual animals, 100 mg/kg): 23.68 mU/ml and 13.16 mU/ml and 20.61 mU/ml
- Plasma DP IV activity (oral 100 mg/kg b.w., 7.5 min, Mean): 17.25 mU/ml
- Plasma DP IV activity (oral 100 mg/kg b.w., 7.5 min, Standardized Mean): 17.08 mU/ml
- Plasma DP IV activity (oral 100 mg/kg b.w., 7.5 min, individual animals, 100 mg/kg): 21.05 mU/ml and 12.28 mU/ml and 18.42 mU/ml
- Plasma DP IV activity (oral 100 mg/kg b.w., 10 min, Mean): 21.64 mU/ml
- Plasma DP IV activity (oral 100 mg/kg b.w., 10 min, Standardized Mean): 21.46 mU/ml
- Plasma DP IV activity (oral 100 mg/kg b.w., 10 min, individual animals, 100 mg/kg): 21.93 mU/ml and 25.88 mU/ml and 17.11 mU/ml
- Plasma DP IV activity (oral 100 mg/kg b.w., 15 min, Mean): 21.05 mU/ml
- Plasma DP IV activity (oral 100 mg/kg b.w., 15 min, Standardized Mean): 20.88 mU/ml
- Plasma DP IV activity (oral 100 mg/kg b.w., 15 min, individual animals, 100 mg/kg): 29.39 mU/ml and 15.79 mU/ml and 17.98 mU/ml
- Plasma DP IV activity (oral 100 mg/kg b.w., 20 min, Mean): 17.98 mU/ml
- Plasma DP IV activity (oral 100 mg/kg b.w., 20 min, Standardized Mean): 17.81 mU/ml
- Plasma DP IV activity (oral 100 mg/kg b.w., 20 min, individual animals, 100 mg/kg): 25.00 mU/ml and 10.97 mU/ml
- Plasma DP IV activity (oral 100 mg/kg b.w., 40 min, Mean): 19.30 mU/ml
- Plasma DP IV activity (oral 100 mg/kg b.w., 40 min, Standardized Mean): 19.12 mU/ml
- Plasma DP IV activity (oral 100 mg/kg b.w., 40 min, individual animals, 100 mg/kg): 21.49 mU/ml and 8.77 mU/ml and 27.63 mU/ml
- Plasma DP IV activity (oral 100 mg/kg b.w., 60 min, Mean): 19.44 mU/ml
- Plasma DP IV activity (oral 100 mg/kg b.w., 60 min, Standardized Mean): 19.27 mU/ml
- Plasma DP IV activity (oral 100 mg/kg b.w., 60 min, individual animals, 100 mg/kg): 21.93 mU/ml (2×) and 14.47 mU/ml
- Plasma DP IV activity (oral 100 mg/kg b.w., 120 min, Mean): 20.91 mU/ml
- Plasma DP IV activity (oral 100 mg/kg b.w., 120 min, Standardized Mean): 20.73 mU/ml
- Plasma DP IV activity (oral 100 mg/kg b.w., 120 min, individual animals, 100 mg/kg): 16.23 mU/ml and 23.25 mU/ml (2×)
- DP IV-AUC (oral 100 mg/kg b.w., Mean): −51.5 AU · min
- Drop of plasma DP IV activity (oral 100 mg/kg b.w., Mean): 10.53 mU/ml
- DP IV-AUC [3]: 155.2 AU · min and −961.1 AU · min and 651.3 AU · min
- Drop of plasma DP IV activity [3]: 6.58 mU/ml and 23.25 mU/ml and 1.75 mU/ml
- DP IV-AUC0-120 min (oral 100 mg/kg b.w., p<0.05 vs. intra-vasal): −336±162 mU·min·ml^−1
- inhibition at 100 mg/kg (iv, i.v., 100 mg/kg, read-out: DPIV inhibition at tmax, i.v.): 71%
- inhibition at 100 mg/kg (po, p.o., 100 mg/kg, read-out: DPIV inhibition at tmax, p.o.): 28%
